Here are results for 19 compounds from patent US20260258032A1, “TYROSINE KINASE 2 INHIBITORS AND USES THEREOF” (BIOGEN MA INC., priority 2022, published 2026).

One assay addresses T1, JH2 domain of human Tyk2 (Homo sapiens, UniProt P29597).
T1 construct: 10×His-tagged TYK2 JH2 domain (amino acid 575-876)
Kind of assay: JH2 biochemical assay (TR-FRET probe displacement). It is filed as binding. The gist of the method:
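A probe-displacement TR-FRET readout: compounds, tested in 3-fold, 10-point dilutions starting at […], compete with 2 nM tracer for 2 nM His-tagged JH2 (residues 575-876) detected by 0.1 nM Tb-anti-His over 60 min. IC50 comes from 4-parameter fits of normalized 520/495 nm ratios.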
(In TR-FRET formats the signal depends on donor and acceptor labels being close together.)

Assay [1] relates to Tyk2 kinase activity on STAT4. Kind of assay: pSTAT4 cell assay (MSD, NK92 cells). It is filed as cell-based. The conditions noted are these: compounds 1 hr. The gist of the method: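 Compound treatment of starved NK92 cells ran 1 hr before a 15-minute, 30 ng/mL IL2 pulse; lysates went to an MSD anti-STAT4 antibody assay, with curves fitted by 4-parameter logistic model.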
Assay [2] concerns JAK1 kinase activity on STAT3. The experiment in a line: pSTAT3 cell assay (MSD, TF1 cells, IL-6 stimulated). The conditions noted are these: Homo sapiens, TF-1, compounds 1 hour, 30 ng/mL IL-6 for 15 minutes. It is filed as cell-based. As to the method:
The inhibitory potency of compounds of the disclosure against the JAK1 kinase activity on STAT3 was evaluated using an MSD-platform plate-based assay format. TF1 cells natively expressing STAT3 and JAK1 were serum-starved to reduce background phosphorylation levels, then cells were treated with compounds of the disclosure for 1 hour with a 10-point four-fold dilution series starting at 10 μM. Cells were then stimulated with 30 ng/mL interleukin 6 (IL-6) for 15 minutes. Cells were lysed and pSTAT3 levels were quantitated using an MSD plate-based assay with anti-STAT3 antibodies. The data were normalized and the percent activity versus log concentration of compound was fitted with a 4-parameter logistic model to generate IC50 curves.

Assay [3] relates to JAK2 kinase activity on STAT5. The experiment in a line: pSTAT5 cell assay (MSD, TF1 cells, IL-3 stimulated). It is filed as cell-based. As to conditions: Homo sapiens, TF-1, compounds 1 hour, 30 ng/mL IL-3 for 15 minutes. As to the method:
Compounds of the disclosure were assessed for their ability to inhibit the JAK2 kinase activity on STAT5 utilizing an MSD-platform plate-based assay format. TF1 cells natively expressing STAT5 and JAK2 were serum-starved to reduce background phosphorylation levels, then cells were treated with compounds of disclosure for 1 hour with a 10-point four-fold dilution series starting at 10 μM. Cells were then stimulated with 30 ng/mL IL-3 for 15 minutes. Cells were then lysed and pSTAT5 levels were quantitated using an MSD plate-based assay with anti-STAT5 antibodies. The data were normalized and the percent activity versus log concentration of compound was fitted with a 4-parameter logistic model to generate a curve and an IC50 value.

Structures can show the parent of a compound that is named as a salt.

T1 sequence (P29597 575-876): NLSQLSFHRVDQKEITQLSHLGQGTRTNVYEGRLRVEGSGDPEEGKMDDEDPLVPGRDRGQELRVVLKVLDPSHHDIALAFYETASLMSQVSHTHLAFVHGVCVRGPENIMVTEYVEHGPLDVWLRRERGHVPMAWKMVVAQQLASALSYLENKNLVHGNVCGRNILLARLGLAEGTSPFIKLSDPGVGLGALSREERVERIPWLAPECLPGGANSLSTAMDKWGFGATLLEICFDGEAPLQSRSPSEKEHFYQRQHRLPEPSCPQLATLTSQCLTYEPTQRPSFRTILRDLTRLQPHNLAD

Take `COCCNc1cc(N2CC3(CC3)c3cnc(NC(C)=O)cc32)nc(C(C)(F)F)n1` [Example 49, N-(1′-(2-(1,1-difluoroethyl)-6-((2-methoxyethyl)amino)pyrimidin-4-yl)-1′,2′-dihydrospiro[cyclopropane-1,3'-pyrrolo[3,2-c]pyridin]-6'-yl)acetamide]: the IC50 – broadly, the concentration that gives 50% inhibition – is at most 0.01 µM on JH2 domain of human Tyk2 (JH2 biochemical assay), 0.01 to 0.1 µM in assay [1] (stimulated 15 minutes), at least 1 µM in assay [2] and at least 1 µM in assay [3].
As for `CC(=O)Nc1cc2c(cn1)CCN2c1cccc(C(C)(F)F)n1` [Example 32, N-(1-(6-(1,1-difluoroethyl)pyridin-2-yl)-2,3-dihydro-1H-pyrrolo[3,2-c]pyridin-6-yl)acetamide], the IC50 at JH2 domain of human Tyk2 (JH2 biochemical assay) was 0.01 to 0.1 µM; in assay [1] (stimulated 15 minutes) it was at least 1 µM; in assay [2] it was at least 1 µM; in assay [3], at least 1 µM.
As to `CC(=O)Nc1cc2c(cn1)C1(CC1)CN2c1cccc(C2(F)COC2)n1` [Example 85, N-(1′-(6-(3-fluorooxetan-3-yl)pyridin-2-yl)-1′,2′-dihydrospiro[cyclopropane-1,3′-pyrrolo[3,2-c]pyridin]-6′-yl)acetamide], the IC50 on JH2 domain of human Tyk2 (JH2 biochemical assay) is 0.01 to 0.1 µM; in assay [1] (stimulated 15 minutes), at least 1 µM; in assay [2], at least 1 µM; in assay [3], at least 1 µM.
In the case of `CC(=O)Nc1cc2c(cn1)C1(CC1)CN2c1cccc(C2CCOC2)n1` (stereo not shown) [Example 16, N-(1′-(6-(tetrahydrofuran-3-yl)pyridin-2-yl)-1′,2′-dihydrospiro[cyclopropane-1,3′-pyrrolo[3,2-c]pyridin]-6′-yl)acetamide], the IC50 was at most 0.01 µM on JH2 domain of human Tyk2 (JH2 biochemical assay), 0.01 to 0.1 µM in assay [1] (stimulated 15 minutes), at least 1 µM in assay [2] and at least 1 µM in assay [3].
Turning to `CC(=O)Nc1cc2c(cn1)C(C)(C)CN2c1cccc(C(C)(F)F)n1` [Example 76, N-(1-(6-(1,1-difluoroethyl)pyridin-2-yl)-3,3-dimethyl-2,3-dihydro-1H-pyrrolo[3,2-c]pyridin-6-yl)acetamide trifluoroacetate], the IC50 at JH2 domain of human Tyk2 (JH2 biochemical assay) is 0.1 to 1 µM; in assay [1] (stimulated 15 minutes), at least 1 µM; in assay [2], at least 1 µM; in assay [3], at least 1 µM.
Consider `CC(=O)Nc1cc2c(cn1)C1(CC1)CN2c1cc(-c2cnn(C(C)C)c2)nc(C(C)(F)F)n1` [Example 386, N-(1′-(2-(1,1-difluoroethyl)-6-(1-isopropyl-1H-pyrazol-4-yl)pyrimidin-4-yl)-1′,2′-dihydrospiro[cyclopropane-1,3′-pyrrolo[3,2-c]pyridin]-6′-yl)acetamide trifluoroacetate], for which the IC50 is at most 0.01 µM on JH2 domain of human Tyk2 (TR-FRET probe displacement, JH2 domain of human Tyk2); at most 0.01 µM in assay [1] (then stimulated 15 minutes); at least 1 µM in assay [2]; at least 1 µM in assay [3].
In the case of `CC(=O)Nc1cc2c(cn1)C1(CC1)CN2c1nccc(C(C)(F)F)n1` [Example 14, N-(1′-(4-(1,1-difluoroethyl)pyrimidin-2-yl)-1′,2′-dihydrospiro[cyclopropane-1,3′-pyrrolo[3,2-c]pyridin]-6′-yl)acetamide], the IC50 was 0.01 to 0.1 µM at JH2 domain of human Tyk2 (JH2 biochemical assay), 0.1 to 1 µM in assay [1] (stimulated 15 minutes), at least 1 µM in assay [2] and at least 1 µM in assay [3].
As for `CC(=O)Nc1cc2c(cn1)C1(CC1)CN2c1cc(-c2cnn(C)c2)nc(C(C)(F)F)n1` [Example 238, N-(1′-(2-(1,1-difluoroethyl)-6-(1-methyl-1H-pyrazol-4-yl)pyrimidin-4-yl)-1′,2′-dihydrospiro[cyclopropane-1,3′-pyrrolo[3,2-c]pyridin]-6′-yl)acetamide], the IC50 at JH2 domain of human Tyk2 (JH2 biochemical assay) was at most 0.01 µM; in assay [1] (stimulated 15 minutes) it was at most 0.01 µM; in assay [2], at least 1 µM; in assay [3], at least 1 µM.
Turning to `CNC(=O)Nc1cc2c(cn1)C1(CC1)CN2c1cc(C)nc(C(C)(F)F)n1` [Example 307, 1-(1′-(2-(1,1-difluoroethyl)-6-methylpyrimidin-4-yl)-1′,2′-dihydrospiro[cyclopropane-1,3′-pyrrolo[3,2-c]pyridin]-6′-yl)-3-methylurea], the IC50 on JH2 domain of human Tyk2 (JH2 biochemical assay) is at most 0.01 µM; in assay [1] (stimulated 15 minutes) it was 0.01 to 0.1 µM; in assay [2] it was at least 1 µM; in assay [3], at least 1 µM.
For `CC(=O)Nc1cc2c(cn1)C1(CCC1)CN2c1cccc(C(C)(F)F)n1` [Example 42, N-(1′-(6-(1,1-difluoroethyl)pyridin-2-yl)-1′,2′-dihydrospiro[cyclobutane-1,3′-pyrrolo[3,2-c]pyridin]-6′-yl)acetamide], the IC50 on JH2 domain of human Tyk2 (JH2 biochemical assay) was 0.01 to 0.1 µM; in assay [1] (stimulated 15 minutes) it was at least 1 µM; in assay [2], at least 1 µM; in assay [3], at least 1 µM.
Take `CC(=O)Nc1cc2c(cn1)C1(CC1)CN2c1nc(C)cc(C(C)(F)F)n1` [Example 83, N-(1′-(4-(1,1-difluoroethyl)-6-methylpyrimidin-2-yl)-1′,2′-dihydrospiro[cyclopropane-1,3′-pyrrolo[3,2-c]pyridin]-6′-yl)acetamide]: the IC50 on JH2 domain of human Tyk2 (JH2 biochemical assay) was at most 0.01 µM; in assay [1] (stimulated 15 minutes), 0.1 to 1 µM; in assay [2], at least 1 µM; in assay [3], at least 1 µM.
Regarding `CC(=O)Nc1cc2c(cn1)C1(CC1)CN2c1ccnc(C(C)(F)F)n1` [Example 13, N-(1′-(2-(1,1-difluoroethyl)pyrimidin-4-yl)-1′,2′-dihydrospiro[cyclopropane-1,3′-pyrrolo[3,2-c]pyridin]-6′-yl)acetamide], the concentration for half-maximal inhibition (IC50) at JH2 domain of human Tyk2 (JH2 biochemical assay) was 0.01 to 0.1 µM; in assay [1] (stimulated 15 minutes), 0.1 to 1 µM; in assay [2] it was at least 1 µM; in assay [3], at least 1 µM.
With `CC(=O)Nc1cc2c(cn1)C1(CC1)CN2c1cccc(C2COC2)n1` [Example 84, N-(1′-(6-(oxetan-3-yl)pyridin-2-yl)-1′,2′-dihydrospiro[cyclopropane-1,3′-pyrrolo[3,2-c]pyridin]-6′-yl)acetamide], the IC50 was 0.01 to 0.1 µM on JH2 domain of human Tyk2 (JH2 biochemical assay), at least 1 µM in assay [1] (stimulated 15 minutes), at least 1 µM in assay [2] and at least 1 µM in assay [3].
For the compound `CC(=O)Nc1cc2c(cn1)C1(CC1)CN2c1cccc(C(C)(F)F)n1` [Example 12, N-(1′-(6-(1,1-difluoroethyl)pyridin-2-yl)-1′,2′-dihydrospiro[cyclopropane-1,3′-pyrrolo[3,2-c]pyridin]-6′-yl)acetamide], the IC50 at JH2 domain of human Tyk2 (JH2 biochemical assay) was at most 0.01 µM; in assay [1] (stimulated 15 minutes) it was 0.01 to 0.1 µM; in assay [2], at least 1 µM; in assay [3] it was at least 1 µM.
Take `COc1cc(C(C)(F)F)nc(N2CC3(CC3)c3cnc(NC(C)=O)cc32)n1` [Example 2, N-(1′-(4-(1,1-difluoroethyl)-6-methoxypyrimidin-2-yl)-1′,2′-dihydrospiro[cyclopropane-1,3′-pyrrolo[3,2-c]pyridin]-6′-yl)acetamide]: the IC50 is at most 0.01 µM on JH2 domain of human Tyk2 (JH2 biochemical assay), 0.1 to 1 µM in assay [1] (stimulated 15 minutes), at least 1 µM in assay [2] and at least 1 µM in assay [3].
For `CCc1cc(N2CC3(CC3)c3cnc(NC(C)=O)cc32)nc(C(C)(F)F)n1` [Example 11, N-(1′-(2-(1,1-difluoroethyl)-6-ethylpyrimidin-4-yl)-1′,2′-dihydrospiro[cyclopropane-1,3′-pyrrolo[3,2-c]pyridin]-6′-yl)acetamide], the IC50 on JH2 domain of human Tyk2 (JH2 biochemical assay) was at most 0.01 µM; in assay [1] (stimulated 15 minutes), 0.01 to 0.1 µM; in assay [2], at least 1 µM; in assay [3], at least 1 µM.
For the compound `COC1(c2cccc(N3CC4(CC4)c4cnc(NC(C)=O)cc43)n2)COC1` [Example 87, N-(1′-(6-(3-methoxyoxetan-3-yl)pyridin-2-yl)-1′,2′-dihydrospiro[cyclopropane-1,3′-pyrrolo[3,2-c]pyridin]-6′-yl)acetamide], the IC50 is 0.01 to 0.1 µM at JH2 domain of human Tyk2 (JH2 biochemical assay), at least 1 µM in assay [1] (stimulated 15 minutes), at least 1 µM in assay [2] and at least 1 µM in assay [3].
As for `CC(=O)Nc1cc2c(cn1)C1(CC1)CN2c1ccnc(C(C)(C)F)n1` [Example 17, N-(1′-(2-(2-fluoropropan-2-yl)pyrimidin-4-yl)-1′,2′-dihydrospiro[cyclopropane-1,3′-pyrrolo[3,2-c]pyridin]-6′-yl)acetamide], the IC50 at JH2 domain of human Tyk2 (JH2 biochemical assay) is at most 0.01 µM; in assay [1] (stimulated 15 minutes), 0.1 to 1 µM; in assay [2] it was at least 1 µM; in assay [3], at least 1 µM.
Turning to `CC(=O)Nc1cc2c(cn1)C1(CCN(C)CC1)CN2c1ccnc(C(C)(F)F)n1` [Example 275, N-(1′-(2-(1,1-difluoroethyl)pyrimidin-4-yl)-1-methyl-1′,2′-dihydrospiro[piperidine-4,3′-pyrrolo[3,2-c]pyridin]-6′-yl)acetamide trifluoroacetate], the concentration for half-maximal inhibition (IC50) (on JH2 domain of human Tyk2 (JH2 biochemical assay); in assay [1] (stimulated 15 minutes); in assay [2]; in assay [3]) was at least 1 µM in each case.
